Measurements as given in US5525627A, “Esters of acyl carnitines with long-chain aliphatic alcohols and pharmaceutical compositions containing same having antimycotic activity” (Sigma-Tau Industrie Farmaceutiche Riunite S.p.A., priority 1992, dated 1996).

Key:
yeast-like fungi = assay: MIC / MFC for yeast-like fungi, all strains; type: cell-based, Candida, Cryptococcus, Saccharomyces, Torulopsis; settings: versus susceptible strains; read-out: Mean MIC values
Method: (§1) The following strains were used (the number of strains is in brackets): Candida (13); Criptococcus (2); Saccharormyces (1); Torulopsis (1).
(§2) Yeast Nitrogen Base supplemented with 0.15% asparagine and 1.0% glucose (as carbon source) was the medium utilized in the assays.
(§3) This medium was buffered with 0.165 M 2-(N-morpholino) propane sulfonic acid (MOPS), a non-chelating buffer. […]
(§4) The inoculum was prepared from an overnight broth culture (a 48-hour culture only for Cryptococcus) in Sabouraud broth and appropriately diluted to yield a final suspension containing approximately 5.0×10^6 Colony Forming Units per ml (CFU/ml), when compared to the Mc Farland's standard control (BRAY W. E., Clinical Laboratory Methods, 5th Ed. C. V. MOSBY, St. Louis, Mo, 1957).
(§5) After further diluting (1:50), a […] volume of such fungal suspensions and an equal volume of the substance solutions were distributed into each well of a microtiter plate (96 wells, round bottom). Such a procedure eventually allowed for an "in vitro" antimycotic activity assay utilizing final fungal inocula of approximately 5.0×10^4 CFU/ml.
(§6) The minimal fungicidal concentration was evaluated by spot-transferring onto Petri dishes, containing Sabouraud agar, 0.01-ml volumes of all the samples showing no visible fungal growth.

[1] = test system: Saccharomyces cerevisiae (ATCC 7752); assay: MIC for yeast and yeast-like strains; type: cell-based; settings: ATCC7752, 48 hours, 35° C., read-out: Minimal Inhibitory Concentration (MIC)
Method: as §1, §2, §3, §4, §5

[2] = test system: Torulopsis candida (D.S.); assay: MIC for yeast and yeast-like strains; type: cell-based; settings: Suzukiozyma candida; 48 hours, 35° C.; read-out: Minimal Inhibitory Concentration (MIC)
Method: as §1, §2, §3, §4, §5

[3] = test system: Cryptococcus neoformans (4711); assay: MIC for yeast and yeast-like strains; type: cell-based; settings: 48 hours, 35° C., read-out: Minimal Inhibitory Concentration (MIC)
Method: as §1, §2, §3, §4, §5

Candida albicans (Ca 2) = assay: MIC for yeast and yeast-like strains; type: cell-based; settings: 48 hours, 35° C., read-out: Minimal Inhibitory Concentration (MIC)
Method: as §1, §2, §3, §4, §5

[4] = test system: Candida tropicalis (5705); assay: MIC for yeast and yeast-like strains; type: cell-based; settings: 48 hours, 35° C., read-out: Minimal Inhibitory Concentration (MIC)
Method: as §1, §2, §3, §4, §5

Candida krusei (ISS 1) = assay: MIC for yeast and yeast-like strains; type: cell-based; settings: Pichia kudriavzevii; 48 hours, 35° C.; read-out: Minimal Inhibitory Concentration (MIC)
Method: as §1, §2, §3, §4, §5

Candida albicans (A 54) = assay: MIC for yeast and yeast-like strains; type: cell-based; settings: 48 hours, 35° C., read-out: Minimal Inhibitory Concentration (MIC)
Method: as §1, §2, §3, §4, §5

Candida albicans (562) = assay: MIC for yeast and yeast-like strains; type: cell-based; settings: 48 hours, 35° C., read-out: Minimal Inhibitory Concentration (MIC)
Method: as §1, §2, §3, §4, §5

[5] = test system: Candida tropicalis (ISS 1); assay: MIC for yeast and yeast-like strains; type: cell-based; settings: 48 hours, 35° C., read-out: Minimal Inhibitory Concentration (MIC)
Method: as §1, §2
(§7) This medium was buffered with 0.165 M 2-(N-morpholino) propane sulfonic acid (MOPS), a non-chelating buffer.
(§8) Antimicrob. Agents Cheroother. Aug. 34.8:1542-1545).
as §4, §5

[6] = test system: Candida albicans (ATCC 2091); assay: MIC for yeast and yeast-like strains; type: cell-based; settings: ATCC2091, 48 hours, 35° C., read-out: Minimal Inhibitory Concentration (MIC)
Method: as §1, §2, §7, §8, §4, §5

[7] = test system: Cryptococcus neoformans (ISS 1); assay: MIC for yeast and yeast-like strains; type: cell-based; settings: 48 hours, 35° C., read-out: Minimal Inhibitory Concentration (MIC)
Method: as §1, §2, §7, §8, §4, §5

Candida glabrata (ISS 1) = assay: MIC for yeast and yeast-like strains; type: cell-based; settings: Nakaseomyces glabratus; 48 hours, 35° C.; read-out: Minimal Inhibitory Concentration (MIC)
Method: as §1, §2, §7, §8, §4, §5

[8] = test system: Candida guilliermondii (ISS 1); assay: MIC for yeast and yeast-like strains; type: cell-based; settings: Meyerozyma guilliermondii; 48 hours, 35° C.; read-out: Minimal Inhibitory Concentration (MIC)
Method: as §1, §2, §7, §8, §4, §5

[9] = test system: Candida pseudotropicalis (EC 1); assay: MIC for yeast and yeast-like strains; type: cell-based; settings: Kluyveromyces marxianus; 48 hours, 35° C.; read-out: Minimal Inhibitory Concentration (MIC)
Method: as §1, §2, §7, §8, §4, §5

[10] = test system: Candida parapsilosis (ISS 1); assay: MIC for yeast and yeast-like strains; type: cell-based; settings: Lodderomyces parapsilosis; 48 hours, 35° C.; read-out: Minimal Inhibitory Concentration (MIC)
Method: as §1, §2, §7, §8, §4, §5

Candida albicans (ISS 1) = assay: MIC for yeast and yeast-like strains; type: cell-based; settings: 48 hours, 35° C., read-out: Minimal Inhibitory Concentration (MIC)
Method: as §1, §2, §7, §8, §4, §5

filamentous fungi = assay: MIC / MFC for filamentous fungi, all strains; type: cell-based, Aspergillus, Fusarium, Mucor, Penicillium; settings: versus susceptible strains; read-out: Mean MIC values
Text: (§9) The following strains were used (the number of strains is in brackets): Aspergillus (5); Fusarium (1); Mucor (1); Penicillium (1).
(§10) The tested substances were: ST 712, ST 722, ST 982, ST 983, ST 1000, ST 1001, ST 1032, ST 1033, ST 1034, ST 1036, ST 1037, ST 1038, ST 1050, ST 1051, ST 1052, ST 1053. The assay medium was the same as the one used in the previous study. The conidia from 72-hour cultures in Sabouraud agar, collected by washing with Sabouraud medium and Tween 80 (one drop of Tween per 10 ml of medium), were utilized as inoculum (5.0×10^4 CFU/ml).
(§11) The assay was performed using the same procedure as described for yeast-like fungi.
(§12) Also the evaluation of MIC and MFC was as reported previously.

Candida albicans (PG) = assay: MIC and MFC for yeast and yeast-like strains; type: cell-based; settings: 48 hours, 35° C., read-out: Minimal Inhibitory Concentration (MIC)
Method: as §1, §2, §7, §8, §4, §5, §6

Mucor mucedo (ATCC 7941) = assay: MIC for filamentous fungi; type: cell-based; settings: ATCC7941, read-out: Minimal Inhibitory Concentration (MIC)
Text: as §9, §10, §11, §12

Penicillium sp. (1302) = assay: MIC for filamentous fungi; type: cell-based; settings: read-out: Minimal Inhibitory Concentration (MIC)
Text: as §9, §10, §11, §12

Fusarium sp. (ISS 1) = assay: MIC for filamentous fungi; type: cell-based; settings: read-out: Minimal Inhibitory Concentration (MIC)
Text: as §9, §10, §11, §12

[11] = test system: Aspergillus niger (ATCC 16404); assay: MIC for filamentous fungi; type: cell-based; settings: ATCC16404, read-out: Minimal Inhibitory Concentration (MIC)
Text: as §9, §10, §11, §12

[12] = test system: Aspergillus fumigatus (ATCC 28212); assay: MIC for filamentous fungi; type: cell-based; settings: ATCC28212, read-out: Minimal Inhibitory Concentration (MIC)
Text: as §9, §10, §11, §12

[13] = test system: Aspergillus fumigatus (2/A); assay: MIC for filamentous fungi; type: cell-based; settings: read-out: Minimal Inhibitory Concentration (MIC)
Text: as §9, §10, §11, §12

[14] = test system: Aspergillus fumigatus (1/A); assay: MIC for filamentous fungi; type: cell-based; settings: read-out: Minimal Inhibitory Concentration (MIC)
Text: as §9, §10, §11, §12

[15] = test system: Aspergillus fumigatus (C/1); assay: MIC for filamentous fungi; type: cell-based; settings: read-out: Minimal Inhibitory Concentration (MIC)
Text: as §9, §10, §11, §12

Row | SMILES | MIC (yeast-like fungi) | MIC [1] | MIC [2] | MIC [3] | MIC (Candida albicans (Ca 2)) | MIC [4] | MIC (Candida krusei (ISS 1)) | MIC (Candida albicans (A 54)) | MIC (Candida albicans (562)) | MIC [5] | MIC [6] | MIC [7] | MIC (Candida glabrata (ISS 1)) | MIC [8] | MIC [9] | MIC [10] | MIC (Candida albicans (ISS 1)) | MIC (filamentous fungi) | MIC (Candida albicans (PG)) | MIC (Mucor mucedo (ATCC 7941)) | also measured
1 | CCCCCCCCCCCCOC(=O)C[C@H](C[N+](C)(C)C)OC(=O)C(C)C [ST 1038] | 4.4 µg/mL | 6.25 µg/mL | 6.25 µg/mL | 1.56 µg/mL | 1.56 µg/mL | 3.12 µg/mL | 3.12 µg/mL | 3.12 µg/mL | 3.12 µg/mL | 3.12 µg/mL | 3.12 µg/mL | 3.12 µg/mL | 6.25 µg/mL | 6.25 µg/mL | 6.25 µg/mL | 6.25 µg/mL | 6.25 µg/mL | 12.5 µg/mL | 6.25 µg/mL | 25 µg/mL | MIC (Penicillium sp. (1302)): 12.5 µg/mL; MIC (Fusarium sp. (ISS 1)): 6.25 µg/mL; MIC [11]: 12.5 µg/mL; MIC [12]: 12.5 µg/mL; MIC [13]: 12.5 µg/mL; MIC [14]: 12.5 µg/mL; MIC [15]: 6.25 µg/mL
2 | CCCCCCCCCCCOC(=O)C[C@H](C[N+](C)(C)C)OC(=O)CCCCCC [ST 1036] | 2.84 µg/mL | 3.12 µg/mL | 3.12 µg/mL | 1.56 µg/mL | 1.56 µg/mL | 3.12 µg/mL | 1.56 µg/mL | 1.56 µg/mL | 1.56 µg/mL | 3.12 µg/mL | 1.56 µg/mL | 3.12 µg/mL | 3.12 µg/mL | 6.25 µg/mL | 6.25 µg/mL | 6.25 µg/mL | 1.56 µg/mL | 4.29 µg/mL | 3.12 µg/mL | 6.25 µg/mL | MIC (Penicillium sp. (1302)): 3.12 µg/mL; MIC (Fusarium sp. (ISS 1)): 3.12 µg/mL; MIC [11]: 3.12 µg/mL; MIC [12]: 3.12 µg/mL; MIC [13]: 6.25 µg/mL; MIC [14]: 6.25 µg/mL; MIC [15]: 3.12 µg/mL
3 | CCCCCCCCCCCOC(=O)C[C@H](C[N+](C)(C)C)OC(=O)CCC(C)C [ST 1034] | 3.03 µg/mL | 3.12 µg/mL | 3.12 µg/mL | 1.56 µg/mL | 1.56 µg/mL | 3.12 µg/mL | 1.56 µg/mL | 1.56 µg/mL | 1.56 µg/mL | 3.12 µg/mL | 1.56 µg/mL | 3.12 µg/mL | 3.12 µg/mL | 6.25 µg/mL | 6.25 µg/mL | 6.25 µg/mL | 1.56 µg/mL | 5.85 µg/mL | 3.12 µg/mL | 12.5 µg/mL | MIC (Penicillium sp. (1302)): 3.12 µg/mL; MIC (Fusarium sp. (ISS 1)): 3.12 µg/mL; MIC [11]: 6.25 µg/mL; MIC [12]: 6.25 µg/mL; MIC [13]: 3.12 µg/mL; MIC [14]: 6.25 µg/mL; MIC [15]: 6.25 µg/mL
4 | CCCCCCCCCCCCCCCCOC(=O)C[C@H](C[N+](C)(C)C)OC(=O)CC(C)C [ST 1001] | 6.24 µg/mL | 6.25 µg/mL | 6.25 µg/mL | 1.56 µg/mL | 3.12 µg/mL | 6.25 µg/mL | 6.25 µg/mL | 3.12 µg/mL | 3.12 µg/mL | 12.5 µg/mL | 6.25 µg/mL | 3.12 µg/mL | 6.25 µg/mL | 6.25 µg/mL | 12.5 µg/mL | 6.25 µg/mL | 12.5 µg/mL | 7.03 µg/mL | 6.25 µg/mL | > 100 µg/mL | MIC (Penicillium sp. (1302)): 6.25 µg/mL; MIC (Fusarium sp. (ISS 1)): 12.5 µg/mL; MIC [11]: 12.5 µg/mL; MIC [12]: 6.25 µg/mL; MIC [13]: 6.25 µg/mL; MIC [14]: 6.25 µg/mL; MIC [15]: 6.25 µg/mL
